Reference: EP4523686A1, “A SIGMA-1 RECEPTOR POSITIVE MODULATOR FOR ITS USE IN THE PREVENTION AND THE TREATMENT OF A PATHOLOGY” (priority 2023, dated 2025)
Where “and” joins values, the source holds several entries; their conditions need not be identical. Equal entries are not always repeated.

Tests used:
S2R = biological target: T1, S2R (Homo sapiens, UniProt Q5BJF2); experiment: In vitro binding to S2R ([3H]ditolyl-guanidine, Jurkat cell membranes, CEREP); conditions: membranes from Jurkat human leukemic T cells, 25 nM radioligand; read-out: IC50 for [3H]DTG binding (S2R / SIG-2R affinity)
T1 construct: 25 nM of [^3H]ditolyl-guanidine in membranes preparations from Jurkat human leukemic T cells; host or cells: Jurkat human leukemic T cells (membrane preparation)
T1 sequence (Q5BJF2 whole entry): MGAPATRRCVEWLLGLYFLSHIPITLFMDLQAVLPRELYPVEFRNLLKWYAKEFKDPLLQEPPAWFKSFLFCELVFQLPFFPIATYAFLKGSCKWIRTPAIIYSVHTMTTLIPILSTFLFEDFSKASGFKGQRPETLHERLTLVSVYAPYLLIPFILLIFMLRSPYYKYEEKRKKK
Procedure: The assay was performed by CEREP (Celle l'Evescault, France) (study 100062023). SIG-1R binding was performed according to Ganapathy et al. (1999). Increasing drug concentrations (100 nM to 30 µM) were incubated with 15 nM of [^3H](+)-pentazocine in membranes preparations from Jurkat human leukemic T cells. Samples were incubated during 120 min at 37°C and nonspecific binding level was determined using 10 µM of haloperidol. S2R binding was performed according to Ganapathy et al. (1999). Increasing drug concentrations (100 nM to 30 µM) were incubated with 25 nM of [^3H]ditolyl-guanidine in membranes preparations from Jurkat human leukemic T cells. Samples were incubated during 60 min at room temperature and nonspecific binding level was determined using 10 µM of haloperidol. Assays were performed in duplicates and results were expressed as % of specific binding level.

Kv channel = experiment: CEREP in vitro binding assay (pharmacological profiling)
SIG-1R/BiP = biological target: T2, SIG-1R/BiP (Homo sapiens, UniProt Q99720); experiment: SIG-1R/BiP dissociation assay in GFP-SIG-1R-overexpressing CHO cells; format: cell-based; conditions: for dissociation of SIG-1R from BiP (in words) / dissociation of the SIG-1R/BiP complex (in words): compound alone; for dissociation of the SIG-1R/BiP complex (in words): no concentration stated
T2 construct: host or cells: CHO cells overexpressing GFP-SIG-1R
T2 sequence (Q99720 whole entry): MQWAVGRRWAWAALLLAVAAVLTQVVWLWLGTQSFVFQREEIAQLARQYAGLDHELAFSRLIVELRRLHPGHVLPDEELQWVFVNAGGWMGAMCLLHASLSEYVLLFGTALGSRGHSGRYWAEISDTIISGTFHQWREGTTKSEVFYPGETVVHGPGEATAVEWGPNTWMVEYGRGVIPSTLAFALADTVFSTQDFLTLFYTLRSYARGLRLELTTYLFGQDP
Procedure: CHO cells which overexpress GFP tagged-SIG-1R (gift from Tsung-Ping Su, NIDA/NIH, Baltimore, MD, USA) were maintained in DMEM/Glutamax culture medium supplemented with 10% heat inactivated FBS. GFP-SIG-1Roe CHO cells were plated in 6-well plates and treated with test compounds dissolved in culture medium for 30 min at 37°C. The reaction was terminated by removing the culture medium containing the test drug and replacing it with 1 ml of PBS. GFP-SIG-1R-oe CHO cells were harvested and suspended in PBS (pH 7.4) followed by cross-linking with 50 µg/ml of dithiobis succinimidyl propionate (ThermoFisher, France). The reaction was stopped by adding Tris/HCl 50 mM (pH 8.8). After a 15 min incubation on ice, cells were lysed with 50 mM Tris (pH 7.4), 150 mM NaCl, 1% Triton X/100, 0.3% sodium deoxycholate, 0.1% SDS buffer containing a protease inhibitor cocktail (Sigma-Aldrich, France). After centrifugation at 16,000 g for 1 min, the supernatant was incubated with Chromotek GFP-trap agarose (Proteintech, United Kingdom) overnight at 4°C.

[1] = tested on: wfs1ab^KO zebrafish larvae; experiment: Visual motor response in zebrafish larvae (hyperlocomotor response); format: in vivo
Procedure: The visual motor response assay quantifies the locomotor activity of the zebrafish larvae to light intensity changes. The protocol was previously described (Crouzier et al., 2021a, 2021b, 2022). In brief, 5 dpf larvae were transfered in a 96-well plate (#7701-1651, Whatman) with 300 µl of fish water and placed in a Zebrabox® (ViewPoint, Lissieu, France). The locomotor behavior was monitored using an automated videotracking device equipped with an infra-red (IR) camera under IR light illumination (Zebralab®, Viewpoint). The light protocol was as follow: 30 min of acclimatization in the dark (0% light intensity), then 2 cycles of 10-min duration light ON and 10-min duration light OFF periods. The brightness changes were immediate (<< 1 s). The activity was measured in mm/s. For each larva, the mobility were calculated as mean (OFF-ON) values to account for inter- and intra-group variability in locomotor response.
A phenotypic test described by Crouzier et al. (2022) was performed. […] Compounds were added in the fish water of larvae at 4 dpf for 24 h, and screening parameters included: (1) the lack of toxicity (including grossly observable morphological alterations) after 24 h exposure; (2) the locomotor increase in wfs1ab^KO larvae, expressed as % of V-treated wfs1ab^KO response; (3) the eventual alteration of locomotion in wfs1ab^WT larvae, expressed as % of V-treated wfs1ab^WT response; and (4) the Protection index (PI) calculated as detailed in the Methods section.

[2] = tested on: Dizocilpine-induced learning impairments in mice; experiment: Step-through passive avoidance, Dizocilpine-induced learning impairments; format: in vivo
From the text: The apparatus is a two-compartments (15 × 20 × 15 cm high) box with one illuminated with white polyvinylchloride walls and the other darkened with black polyvinylchloride walls and a grid floor. A guillotine door separates each compartment. A 60 W lamp positioned 40 cm above the apparatus lights up the white compartment during the experiment. Scrambled foot shocks (0.3 mA for 3 s) could be delivered to the grid floor using a shock generator scrambler (Lafayette Instruments, Lafayette, USA). The guillotine door was initially closed during the training session. Each mouse was placed into the white compartment. After 5 s, the door was raised. When the mouse entered the darkened compartment and placed all its paws on the grid floor, the door is closed and the foot shocks delivered for 3 s. The step-through latency (STL-Tg), that is, the latency spent to enter the darkened compartment, and the number of vocalizations were recorded. The retention test was carried out 24 h after training. Each mouse was placed again into the white compartment. After 5 s, the door was raised. The step-through latency (STL-R) was recorded up to 300 s (Meunier et al., 2006, 2013; Villard et al., 2009, 2011). An exclusion criteria was STL-Tg and STL-R < 10 s. Animals showing these readouts are excluded from the calculations. Attrition is routinely < 5% in this test.

COc1ccc(C(=O)OC2CC3CCC(C2)N3C)cc1OC (stereo not shown) [Convolamine, (8-methyl-8-azabicyclo[3.2.1]octan-3-yl) 3,4-dimethoxybenzoate]
IC50 (S2R): 13 µM and ~13 µM
inhibition at 0.1 µM (Kv channel; 0.1 µM, duplicates): 30.4%
inhibition at 1 µM (Kv channel; 1 µM, duplicates): 22.7%
inhibitions of the selective radiotracer (Kv channel; at micromolar concentrations, range given jointly for CB2, Kv, 5-HT3): 20-60%
IC50 (SIG-1R/BiP; IC50 of SIG-1R positive modulatory action (displacement of PRE-084 efficacy to dissociate SIG-1R from BiP), convolamine 0.1-10 µM with PRE-084): 0.29 µM and 0.289 µM
dissociation of SIG-1R from BiP (in words) (SIG-1R/BiP; at concentrations < 10 µM): failed to dissociate SIG-1R from BiP
dissociation of SIG-1R from BiP (in words) (SIG-1R/BiP; at concentrations up to 30 µM): failed to dissociate SIG-1R from BiP
dissociation of the SIG-1R/BiP complex (in words) (SIG-1R/BiP): did not induce the dissociation
dissociation of the SIG-1R/BiP complex (in words) (SIG-1R/BiP; listed as convolamine): does not allow the dissociation
hyperlocomotor response of wfs1ab^KO zebrafish larvae (in words) ([1]; 0.3-3 µM concentration-range): dose-dependently abolished
Protection index (PI) ([1]; 5 dpf larvae, 24 h exposure, 3 µM): 1.0
hyperlocomotor response of wfs1ab^KO zebrafish (in words) ([1]; at 3 µM in fish water): completely prevented
effect of convolamine on hyperlocomotor response under co-treatment with NE-100 (in words) ([1]; co-treatment with NE-100 at 3 µM): attenuated
convolamine effect on step-through latency under NE-100 co-treatment (in words) ([2]; Convolamine 1 mg/Kg IP with NE-100 1 mg/Kg): blocked
Dizocilpine-induced decrease of step-through latency (in words) ([2]; at 1 mg/kg IP): attenuated significantly
Dizocilpine-induced increase of escape latency (in words) ([2]; at 0.3-3 mg/kg IP): attenuated significantly
